From PMC4306533, “Distinct Features of Cap Binding by eIF4E1b Proteins” (Journal of Molecular Biology, 2015)

Tests used:
[1] = system: eIF4E1a; set-up: method as in PMID 15317978; settings: cited from earlier work
[2] = system: in vitro translation; set-up: method as in PMID 10387101; settings: Cai et al.; read-out: IC50 (inhibitory potency); cited from earlier work
[3] = target: eIF4E1a; set-up: method as in PMID 19351181; settings: Ghosh et al.; cited from earlier work
[4] = target: T1, XeIF4E1a (Xenopus laevis, UniProt P48597); assay: time-synchronized fluorescence titration of cap analogue binding; settings: for Kas + glycerol XeIF4E1a / Kas − glycerol XeIF4E1a: equilibrium association constant; for Kas − glycerol XeIF4E1a: buffer without glycerol
T1 construct: made in house; host or cells: E. coli Rosetta2(DE3)
T1 sequence (P48597 whole entry): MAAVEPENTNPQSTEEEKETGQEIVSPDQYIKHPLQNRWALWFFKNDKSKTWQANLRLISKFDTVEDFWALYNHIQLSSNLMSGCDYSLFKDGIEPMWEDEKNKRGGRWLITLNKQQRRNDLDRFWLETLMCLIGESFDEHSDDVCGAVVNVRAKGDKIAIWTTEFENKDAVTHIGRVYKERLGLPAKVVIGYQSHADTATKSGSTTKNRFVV
From the text: (§1) The time-synchronized fluorescence titration method, widely used to determine the affinity constants of cap–eIF4E complexes [[20,22–26]], measures the quenching of the intrinsic fluorescence of tryptophan residues due to cap binding (Fig. S2). Knowledge of the equilibrium association constant Kas enables the calculation of the free-energy changes involved in the interaction between eIF4E and ligand, according to the standard equation ΔG° = − RTlnKas.
(§2) For human eIF4E1a and eIF4E1b and also for Xenopus eIF4E1a and its mutated forms, measurements were carried out using 0.1 μM protein in 50 mM Hepes/KOH (pH 7.2), 134.5 mM KCl, 0.5 mM EDTA and 1 mM DTT. For Xenopus eIF4E1b(ΔN27), the concentration was 0.2 μM and glycerol was added to the buffer to 10% (v/v) final concentration. […] Fluorescence of measured samples was excited at 280 nm (2.5 nm bandwidth) and detected at 337 nm or 330 nm (4 nm bandwidth), thus reducing the signal originated from the free cap analogues. Measurements were carried out on a LS-55 spectrofluorometer (Perkin Elmer Co.) using freshly prepared proteins, and the fluorescence intensities were corrected for sample dilution and the inner filter effect.
(§3) Equilibrium association constants (Kas) were determined by fitting the theoretical dependence of fluorescence intensity on the total concentration of the cap analogue to the experimental data points, according to the equation described previously (see Ref. [22] and Fig. S2c).
(§4) The final Kas was calculated as a weighted average of 2–6 independent titrations with the weights taken as the reciprocal of the numerical standard deviation squared. Numerical, nonlinear least-squares regression analysis was performed using Origin 6.0 (Microcal Software Inc.). Obtained association constants were used to determine the Gibbs free energy according to the standard equation ΔG° = − RTlnKas.

[5] = target: T2, heIF4E1b (Homo sapiens, UniProt A6NMX2); assay: as above; settings: for Kas − glycerol heIF4E1b: equilibrium association constant, buffer without glycerol
T2 construct: made in house; host or cells: E. coli Rosetta2(DE3)
T2 sequence (A6NMX2 1-242): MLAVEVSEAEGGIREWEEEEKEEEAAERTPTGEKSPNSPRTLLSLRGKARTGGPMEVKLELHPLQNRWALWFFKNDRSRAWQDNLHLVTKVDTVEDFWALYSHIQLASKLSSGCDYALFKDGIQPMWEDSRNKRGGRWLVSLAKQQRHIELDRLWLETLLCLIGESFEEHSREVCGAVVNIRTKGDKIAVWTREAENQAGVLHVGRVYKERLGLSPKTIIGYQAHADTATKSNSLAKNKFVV
From the text: as §1, §2, §3, §4

[6] = target: T3, heIF4E1a (Homo sapiens, UniProt P06730); set-up: method as in PMID 17369309; settings: equilibrium association constant; buffer without glycerol; footnote b; cited from earlier work
T3 construct: made in house; host or cells: E. coli Rosetta2(DE3)
T3 sequence (P06730 whole entry): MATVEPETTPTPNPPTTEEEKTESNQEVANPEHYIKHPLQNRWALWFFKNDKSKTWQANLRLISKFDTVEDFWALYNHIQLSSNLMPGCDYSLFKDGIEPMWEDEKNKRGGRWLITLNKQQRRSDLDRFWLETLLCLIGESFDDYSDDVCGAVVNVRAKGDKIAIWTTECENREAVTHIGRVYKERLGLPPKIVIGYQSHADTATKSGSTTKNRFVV

[7] = target: T4, X4E1a6 (E101S/K102R/S195A/M82S/T206L/T207S) (Xenopus laevis, UniProt P48597, E101S/K102R/M82S/S195A/T206L/T207S); assay: fluorescence titration, XeIF4E1a mutant; assay type: binding; settings: mutant (E101S/K102R/S195A/M82S/T206L/T207S) of XeIF4E1a
T4 construct: made in house; host or cells: E. coli Rosetta2(DE3)
T4 sequence (P48597 whole entry M82S/E101S/K102R/S195A/T206L/T207S): as the sequence (P48597 whole entry) above, with M82S, E101S, K102R, S195A, T206L, T207S counted along it
From the text: (§5) We tested the effect on cap-binding activity of these positions in the fluorescence assay with six mutated recombinant versions of Xenopus eIF4E1a (Fig. S4). The amino acids were introduced in XeIF4E1a sequentially in the order: E101S/K102R/S195A/M82S/T206L/T207S (numbering of the XeIF4E1a sequence is shifted backward by 4 amino acids relative to XeIF4E1b). […] The biggest contribution to the weaker cap binding of XeIF4E1a, in each case about 20%, resulted from changing Glu101 to Ser and Thr206 to Leu coupled with Thr207 to Ser, with the remaining mutations having only minor effects. […] Glu101 is a solvent-accessible amino acid and is proximal to Trp98 in the S3-S4 loop. […] Attenuation of the cap-binding affinity of XeIF4E1a resulting from mutating Thr206 and Thr207 is consistent with our results mentioned above showing significant influence of C-terminal loop residues on binding phosphate and the second nucleotide.
(§6) For human eIF4E1a and eIF4E1b and also for Xenopus eIF4E1a and its mutated forms, measurements were carried out using 0.1 μM protein in 50 mM Hepes/KOH (pH 7.2), 134.5 mM KCl, 0.5 mM EDTA and 1 mM DTT. For Xenopus eIF4E1b(ΔN27), the concentration was 0.2 μM and glycerol was added to the buffer to 10% (v/v) final concentration. […] The gradually increasing concentration of cap analogue quenches protein fluorescence without shifting the spectrum maximum, while at high concentrations, the fluorescence signal of free cap analogue dominates over the fluorescence from other solution components including free eIF4E and eIF4E in complex with cap (Fig. S2a). Fluorescence of measured samples was excited at 280 nm (2.5 nm bandwidth) and detected at 337 nm or 330 nm (4 nm bandwidth), thus reducing the signal originated from the free cap analogues. Measurements were carried out on a LS-55 spectrofluorometer (Perkin Elmer Co.) using freshly prepared proteins, and the fluorescence intensities were corrected for sample dilution and the inner filter effect.
(§7) Equilibrium association constants (Kas) were determined by fitting the theoretical dependence of fluorescence intensity on the total concentration of the cap analogue to the experimental data points, according to the equation described previously (see Ref. [22] and Fig. S2c). […] Along with Kas and the concentration of the active protein [P0^act], other parameters such as fL and ∆f = fPact − fPL are also gained from the fit, where fL represents the fluorescence efficiency of free cap analogue and ∆f represents the difference between the fluorescence efficiencies of the apo-protein and the complex (Fig. S2c).
as §4

[8] = target: T5, X4E1a3 (E101S/K102R/S195A) (Xenopus laevis, UniProt P48597, E101S/K102R/S195A); assay: fluorescence titration, XeIF4E1a mutant; assay type: binding; settings: mutant (E101S/K102R/S195A) of XeIF4E1a
T5 construct: made in house; host or cells: E. coli Rosetta2(DE3)
T5 sequence (P48597 whole entry E101S/K102R/S195A): as the sequence (P48597 whole entry) above, with E101S, K102R, S195A counted along it
From the text: as §5, §6, §7, §4

[9] = target: T6, X4E1a4 (E101S/K102R/S195A/M82S) (Xenopus laevis, UniProt P48597, E101S/K102R/M82S/S195A); assay: fluorescence titration, XeIF4E1a mutant; assay type: binding; settings: mutant (E101S/K102R/S195A/M82S) of XeIF4E1a
T6 construct: made in house; host or cells: E. coli Rosetta2(DE3)
T6 sequence (P48597 whole entry M82S/E101S/K102R/S195A): as the sequence (P48597 whole entry) above, with M82S, E101S, K102R, S195A counted along it
From the text: as §5, §6, §7, §4

[10] = target: T7, X4E1a2 (E101S/K102R) (Xenopus laevis, UniProt P48597, E101S/K102R); assay: fluorescence titration, XeIF4E1a mutant; assay type: binding; settings: mutant (E101S/K102R) of XeIF4E1a
T7 construct: made in house; host or cells: E. coli Rosetta2(DE3)
T7 sequence (P48597 whole entry E101S/K102R): as the sequence (P48597 whole entry) above, with E101S, K102R counted along it
From the text: as §5, §6, §7, §4

[11] = target: T8, X4E1a1 (E101S) (Xenopus laevis, UniProt P48597, E101S); assay: fluorescence titration, XeIF4E1a mutant; assay type: binding; settings: mutant (E101S) of XeIF4E1a
T8 construct: made in house; host or cells: E. coli Rosetta2(DE3)
T8 sequence (P48597 whole entry E101S): as the sequence (P48597 whole entry) above, with E101S counted along it
From the text: as §5, §6, §7, §4

[12] = target: T9, X4E1a1’ (K102R) (Xenopus laevis, UniProt P48597, K102R); assay: fluorescence titration, XeIF4E1a mutant; assay type: binding; settings: mutant (K102R) of XeIF4E1a
T9 construct: made in house; host or cells: E. coli Rosetta2(DE3)
T9 sequence (P48597 whole entry K102R): as the sequence (P48597 whole entry) above, with K102R counted along it
From the text: as §5, §6, §7, §4

[13] = system: XeIF4E1a; assay: time-synchronized fluorescence titration of cap analogue binding; set-up: species or system Xenopus laevis; settings: without glycerol
From the text: as §1, §2, §3, §4

[14] = system: heIF4E1b; assay: as above; set-up: species or system human; settings: without glycerol
From the text: as §1, §2, §3, §4

[15] = target: T3, heIF4E1a; assay: as above; settings: change relative to m^7GTP; without glycerol
From the text: as §1, §2, §3, §4

[16] = system: XeIF4E1bΔN27; assay: as above; set-up: species or system Xenopus laevis; settings: 10% glycerol
From the text: as §1, §2, §3, §4

[17] = change relative to m^7GTP, without glycerol

**Q.** With `Nc1nc2c(ncn2[C@@H]2O[C@H](COP(=O)(O)OP(=O)(O)OP(=O)([O-])OP(=O)(O)OC[C@H]3O[C@@H]([n+]4cn(Cc5ccccc5)c5c(=O)[nH]c(N)nc54)[C@H](O)[C@@H]3O)[C@@H](O)[C@H]2O)c(=O)[nH]1` [bn^7GppppG] as the molecule, how does the “cap-binding affinity to eIF4E1a versus methylated counterpart” value [1] read?
**A.** no increase in cap-binding affinity to eIF4E1a was observed

**Q.** With `Cn1c[n+]([C@@H]2O[C@H](COP(=O)(O)O)[C@@H](O)[C@H]2O)c2nc(N)[nH]c(=O)c21` [m^7GMP] as the molecule, how does the IC50 [2] read?
**A.** 382 µM

**Q.** What about the Kd [3] of the same molecule?
**A.** 7.5 µM

**Q.** What about the “Kas + glycerol XeIF4E1a” value ([4]; 10% glycerol) of the same molecule?
**A.** 0.256 ± 0.018 μM^− 1

**Q.** What about the “Kas − glycerol XeIF4E1a” value [4] of the same molecule?
**A.** 0.567 ± 0.012 μM^− 1

**Q.** And the “Kas − glycerol heIF4E1b” value [5]?
**A.** 0.628 ± 0.016 μM^− 1

**Q.** For `Cn1c[n+]([C@@H]2O[C@H](COP(=O)(O)OP(=O)([O-])OP(=O)(O)OC[C@H]3O[C@@H](n4cnc5c(=O)[nH]c(N)nc54)[C@H](O)[C@@H]3O)[C@@H](O)[C@H]2O)c2nc(N)[nH]c(=O)c21` [m^7GpppG], which “Kas − glycerol heIF4E1a” value [6] is on record?
**A.** 5.94 ± 0.39 ^b μM^− 1

**Q.** And the “Kas X4E1a6” value [7]?
**A.** 2.54 ± 0.15 µM⁻¹

**Q.** And the “Kas X4E1a3” value [8]?
**A.** 2.417 ± 0.051 µM⁻¹

**Q.** And the “Kas X4E1a4” value [9]?
**A.** 2.87 ± 0.11 µM⁻¹

**Q.** And the “Kas X4E1a2” value [10]?
**A.** 2.81 ± 0.10 µM⁻¹

**Q.** What about the “Kas X4E1a1” value [11] of the same molecule?
**A.** 3.38 ± 0.16 µM⁻¹

**Q.** What about the “Kas X4E1a1’” value [12] of the same molecule?
**A.** 3.341 ± 0.090 µM⁻¹

**Q.** And the “Ratio Kas (h4E1a) to Kas (X4E1a)” value [13]?
**A.** 1.49

**Q.** What about the “ΔΔG^o + glycerol XeIF4E1a” value ([4]; change relative to m^7GTP, 10% glycerol) of the same molecule?
**A.** 1.351 ± 0.028 kcal/mol

**Q.** What about the “ΔΔG^o − glycerol XeIF4E1a” value [4, 17] of the same molecule?
**A.** 1.382 ± 0.032 kcal/mol

**Q.** What about the “Kas + glycerol XeIF4E1a” value ([4]; 10% glycerol) of the same molecule?
**A.** 2.291 ± 0.065 μM^− 1

**Q.** And the “Kas − glycerol XeIF4E1a” value [4]?
**A.** 3.98 ± 0.11 μM^− 1

**Q.** And the “Ratio Kas (h4E1a) to Kas (h4E1b)” value [14]?
**A.** 1.68

**Q.** And the “ΔΔG^o − glycerol heIF4E1b” value [5, 17]?
**A.** 1.065 ± 0.040 kcal/mol

**Q.** And the “Kas − glycerol heIF4E1b” value [5]?
**A.** 3.53 ± 0.11 μM^− 1

**Q.** And the “ΔΔG^o − glycerol heIF4E1a” value [15]?
**A.** 1.423 ± 0.058 kcal/mol

**Q.** What about the “Ratio Kas (X4E1a) to Kas (X4E1bΔN27)” value [16] of the same molecule?
**A.** 2.59

**Q.** And the “ΔΔG^o + glycerol XeIF4E1bΔN27” value ([16]; change relative to m^7GTP)?
**A.** 1.268 ± 0.037 kcal/mol

**Q.** What about the “Kas + glycerol XeIF4E1bΔN27” value ([16]; equilibrium association constant) of the same molecule?
**A.** 0.883 ± 0.032 μM^− 1

**Q.** Which IC50 [2] does the source give for `Nc1nc2c(c(=O)[nH]1)[n+](Cc1ccccc1)cn2[C@@H]1O[C@H](COP(=O)([O-])O)[C@@H](O)[C@H]1O` [bn^7GMP] here?
**A.** 113 µM

**Q.** And the Kd [3]?
**A.** 0.8 µM

**Q.** What about the “fold higher binding to eIF4E1a than m^7GMP” value [3] of the same molecule?
**A.** 10 fold
